According to ChEMBL document CHEMBL1201862, “PubChem BioAssay data set” (2004):
Structures can show the parent of a compound that is named as a salt. Activity calls are given as the source filed them.

Legend:
[1] = molecular target: Voltage-gated inwardly rectifying potassium channel KCNH2 (Homo sapiens, UniProt Q12809); settings: Potency;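 also: confirmatory quantitative high-throughput screen measuring inhibition of hERG channel activity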
[2] = molecular target: 72 kDa type IV collagenase (Homo sapiens, UniProt P08253); experiment: Dose Response validation of uHTS RPN11 inhibitor hits using a MMP-2 Fluorescence assay.; assay type: functional
[3] = molecular target: T1, Rac GTPase-activating protein 1 (Homo sapiens, UniProt Q9H0H5); experiment: blockers of MgcRacGAP-driven Rac1 GTP hydrolysis – biochemical, ADP Hunter fluorescence, primary and confirmatory, confirmation (AID 624330); assay type: functional
T1 sequence (Q9H0H5 whole entry): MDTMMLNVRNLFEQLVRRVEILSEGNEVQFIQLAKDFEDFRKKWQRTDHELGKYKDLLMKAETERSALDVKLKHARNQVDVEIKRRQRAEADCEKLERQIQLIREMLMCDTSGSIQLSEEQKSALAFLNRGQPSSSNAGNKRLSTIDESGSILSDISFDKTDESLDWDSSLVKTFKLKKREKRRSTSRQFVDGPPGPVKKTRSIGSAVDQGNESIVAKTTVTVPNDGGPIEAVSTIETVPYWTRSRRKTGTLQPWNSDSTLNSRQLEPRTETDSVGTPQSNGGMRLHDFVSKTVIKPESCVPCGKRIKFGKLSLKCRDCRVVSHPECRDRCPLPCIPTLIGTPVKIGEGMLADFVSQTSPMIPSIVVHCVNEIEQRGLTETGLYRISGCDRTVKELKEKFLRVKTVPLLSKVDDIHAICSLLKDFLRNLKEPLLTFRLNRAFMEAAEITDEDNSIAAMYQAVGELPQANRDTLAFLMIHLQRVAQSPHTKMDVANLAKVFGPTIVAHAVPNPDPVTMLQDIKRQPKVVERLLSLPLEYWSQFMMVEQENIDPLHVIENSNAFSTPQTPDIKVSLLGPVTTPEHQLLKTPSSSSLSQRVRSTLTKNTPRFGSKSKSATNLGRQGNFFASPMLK

[4] = molecular target: Prothrombin (Bos taurus, UniProt P00735); experiment: thrombin protease inhibitors – biochemical, fluorescence polarization, uHTS hits, dose response (AID 602369); assay type: functional
[5] = molecular target: 26S proteasome non-ATPase regulatory subunit 14 (Homo sapiens, UniProt O00487); experiment: inhibition of proteasome subunit RPN11 – biochemical, fluorescence polarization, uHTS hits, confirmation (AID 602368); assay type: functional
[6] = tested on: HEK293; experiment: cells; assay type: functional, cell-based; settings: Homo sapiens
[7] = molecular target: T2, Nuclear receptor subfamily 0 group B member 1 (Homo sapiens, UniProt P51843); experiment: Luminescence-based cell-based high throughput dose response assay for inhibitors of the orphan nuclear receptor subfamily 0, group B, member 1 (DAX1; NR0B1). [Related pubchem assays (depositor defined):AID504766, AID504790]; assay type: functional
T2 sequence (P51843 whole entry): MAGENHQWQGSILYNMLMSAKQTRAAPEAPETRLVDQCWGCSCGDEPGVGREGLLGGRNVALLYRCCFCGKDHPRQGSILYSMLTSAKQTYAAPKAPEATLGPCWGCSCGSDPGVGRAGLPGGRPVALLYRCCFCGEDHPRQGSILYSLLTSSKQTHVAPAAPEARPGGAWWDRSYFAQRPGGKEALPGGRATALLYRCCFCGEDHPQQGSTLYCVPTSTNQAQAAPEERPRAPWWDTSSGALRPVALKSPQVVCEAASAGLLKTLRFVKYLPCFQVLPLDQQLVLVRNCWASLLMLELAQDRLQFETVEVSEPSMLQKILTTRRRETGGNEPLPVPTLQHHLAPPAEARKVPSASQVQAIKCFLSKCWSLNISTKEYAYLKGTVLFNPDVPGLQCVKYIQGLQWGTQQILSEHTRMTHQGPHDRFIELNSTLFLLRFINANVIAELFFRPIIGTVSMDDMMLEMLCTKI

[8] = molecular target: T3, Carboxy-terminal domain RNA polymerase II polypeptide A small phosphatase 1 (Homo sapiens, UniProt Q9GZU7); experiment: CTDSP1 inhibitors, concentration-response, biochemical, absorbance readout, ultra-high-throughput screen actives (AID 540297); assay type: functional
T3 sequence (Q9GZU7 whole entry): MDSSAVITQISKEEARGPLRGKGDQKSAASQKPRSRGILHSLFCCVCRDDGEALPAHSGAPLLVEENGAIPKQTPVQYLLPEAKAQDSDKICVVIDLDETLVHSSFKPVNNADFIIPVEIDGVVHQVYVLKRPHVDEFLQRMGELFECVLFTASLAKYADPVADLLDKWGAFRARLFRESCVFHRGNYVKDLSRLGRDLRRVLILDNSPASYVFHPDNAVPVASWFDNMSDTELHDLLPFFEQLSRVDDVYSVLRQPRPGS

[9] = molecular target: T4, Corticotropin-releasing factor receptor 2/Corticotropin-releasing factor-binding protein (Homo sapiens, UniProt P24387+Q13324); experiment: activators of CRF receptor 2 with binding protein – uHTS hits, confirmation (AID 602473); assay type: functional; settings: read-out: EC50_Mean
T4 sequence (Q13324 whole entry): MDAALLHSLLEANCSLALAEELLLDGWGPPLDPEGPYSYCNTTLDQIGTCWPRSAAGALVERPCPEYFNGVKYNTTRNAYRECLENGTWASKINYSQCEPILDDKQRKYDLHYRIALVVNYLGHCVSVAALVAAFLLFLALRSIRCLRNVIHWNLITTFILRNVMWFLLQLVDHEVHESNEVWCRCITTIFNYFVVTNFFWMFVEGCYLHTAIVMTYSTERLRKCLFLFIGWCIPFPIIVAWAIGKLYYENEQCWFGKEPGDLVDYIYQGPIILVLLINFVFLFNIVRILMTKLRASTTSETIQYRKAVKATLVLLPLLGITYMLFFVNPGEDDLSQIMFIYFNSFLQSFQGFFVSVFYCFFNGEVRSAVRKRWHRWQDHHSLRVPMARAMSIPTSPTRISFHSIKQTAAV
T4 sequence (P24387 whole entry): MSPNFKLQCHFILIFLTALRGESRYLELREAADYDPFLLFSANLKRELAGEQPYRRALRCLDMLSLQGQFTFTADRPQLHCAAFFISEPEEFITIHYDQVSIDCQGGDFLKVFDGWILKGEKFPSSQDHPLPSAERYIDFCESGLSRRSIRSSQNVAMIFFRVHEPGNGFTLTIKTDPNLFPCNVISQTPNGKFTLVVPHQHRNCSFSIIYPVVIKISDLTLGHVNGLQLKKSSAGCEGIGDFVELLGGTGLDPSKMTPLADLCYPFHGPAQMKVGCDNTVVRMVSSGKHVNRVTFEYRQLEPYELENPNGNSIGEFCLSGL

[10] = molecular target: T4, Corticotropin-releasing factor receptor 2/Corticotropin-releasing factor-binding protein; experiment: Dose Response confirmation of uHTS hits for small molecule antagonists of the CRF-binding protein and CRF-R2 receptor complex.; assay type: functional; settings: read-out: IC50_Mean
[11] = molecular target: Protein Wnt-3a (Mus musculus, UniProt P27467); experiment: antagonism of Wnt3a pathway luciferase reporter – Wnt-LIGHT cells, luminescence, selectivity assay for Gli-SUFU antagonist project, dose response (AID 651570); assay type: functional; settings: read-out: IC50_Mean;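 also: Wnt-LIGHT reporter cells stimulated with conditioned medium from Wnt3a-producing cells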
[12] = THP-1 cell cytotoxicity, dose response, cytotoxicity control for non-replicating M. tuberculosis project (AID 489025); assay type: functional
[13] = tested on: Vero; experiment: cells; assay type: functional; settings: Chlorocebus sabaeus
[14] = cells; assay type: functional
[15] = tested on: Vero; experiment: cells; assay type: functional, cell-based; settings: Chlorocebus sabaeus
[16] = tested on: Streptococcus; experiment: GAS UMAA2166 growth inhibition – luminescence, BacTiterGlo, counter-screen for streptokinase expression inhibitor project, dose response (AID 1915); assay type: functional, organism-based;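 also: potency for reduction of bacterial viability or growth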
[17] = microbe, parasite or virus in culture; assay type: functional; settings: Mycobacterium tuberculosis
[18] = Vero E6 cell cytotoxicity, dose response, cytotoxicity control for non-replicating M. tuberculosis project, secondary assay (AID 492998); assay type: functional, VeroE6; settings: Vero C1008
[19] = tested on: Streptococcus sp. 'group A'; experiment: Streptococcus pyogenes SK(-)GAS viability under kanamycin – luminescence, BacTiterGlo, confirmation, counter-screen for streptokinase expression inhibitor project, dose response (AID 1900); assay type: functional, organism-based
[20] = molecular target: T5, CAAX prenyl protease 2 (Homo sapiens, UniProt Q9Y256); experiment: inhibition of Ras-converting CAAX protease Rce1 – biochemical, yeast membranes, quenched-peptide fluorescence, cherry-pick, dose response (AID 588849)
T5 sequence (Q9Y256 whole entry): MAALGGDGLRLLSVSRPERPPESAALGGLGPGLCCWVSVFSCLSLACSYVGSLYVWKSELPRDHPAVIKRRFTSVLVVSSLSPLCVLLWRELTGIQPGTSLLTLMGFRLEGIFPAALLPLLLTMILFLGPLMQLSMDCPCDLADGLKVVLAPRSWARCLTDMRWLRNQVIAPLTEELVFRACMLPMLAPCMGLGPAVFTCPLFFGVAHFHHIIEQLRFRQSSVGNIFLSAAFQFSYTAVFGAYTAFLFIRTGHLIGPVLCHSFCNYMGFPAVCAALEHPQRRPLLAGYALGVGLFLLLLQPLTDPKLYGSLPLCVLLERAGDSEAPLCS

[21] = molecular target: T6, CAAX prenyl protease 1 (Saccharomyces cerevisiae S288c, UniProt P47154); experiment: yeast CAAX protease Ste24 inhibition – biochemical, S. cerevisiae, plate reader, cherry-pick, dose response (AID 488815)
T6 sequence (P47154 whole entry): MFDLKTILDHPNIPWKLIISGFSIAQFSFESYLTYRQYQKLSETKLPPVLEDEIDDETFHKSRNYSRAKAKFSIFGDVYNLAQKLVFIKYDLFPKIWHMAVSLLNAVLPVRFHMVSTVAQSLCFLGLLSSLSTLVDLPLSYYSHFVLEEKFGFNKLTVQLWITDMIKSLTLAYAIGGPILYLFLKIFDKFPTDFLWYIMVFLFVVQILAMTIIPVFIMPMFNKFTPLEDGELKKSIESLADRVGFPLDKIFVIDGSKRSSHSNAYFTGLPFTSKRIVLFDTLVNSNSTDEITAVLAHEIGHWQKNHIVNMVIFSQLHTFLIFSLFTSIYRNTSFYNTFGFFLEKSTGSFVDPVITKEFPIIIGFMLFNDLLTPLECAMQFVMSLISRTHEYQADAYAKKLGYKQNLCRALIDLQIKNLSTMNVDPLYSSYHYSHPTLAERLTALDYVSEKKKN

[22] = A Cell Based Secondary Assay To Explore Cytotoxicity of Compounds that Sensitize Mycobacterium Tuberculosis to Beta-Lactam Antibiotics.; assay type: functional
[23] = molecular target: T7, Mitochondrial peptide methionine sulfoxide reductase (Bos taurus, UniProt P54149); assay type: functional;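 also: absorbance read-out, biochemical high-throughput dose-response screen for MsrA inhibitors, confirmatory; recombinant bovine MsrA coupled to E. coli TrxB with NADPH and selenocystamine; potency is for inhibitors of MsrA activity on DMSO substrate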
T7 sequence (P54149 whole entry): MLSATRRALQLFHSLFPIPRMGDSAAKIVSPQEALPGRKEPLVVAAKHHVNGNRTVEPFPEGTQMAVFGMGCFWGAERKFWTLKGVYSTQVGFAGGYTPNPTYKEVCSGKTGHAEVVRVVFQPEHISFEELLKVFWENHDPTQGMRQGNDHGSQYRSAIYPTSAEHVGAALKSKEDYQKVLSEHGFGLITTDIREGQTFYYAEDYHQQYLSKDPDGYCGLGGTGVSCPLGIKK

Sequence of Voltage-gated inwardly rectifying potassium channel KCNH2 (Q12809 whole entry): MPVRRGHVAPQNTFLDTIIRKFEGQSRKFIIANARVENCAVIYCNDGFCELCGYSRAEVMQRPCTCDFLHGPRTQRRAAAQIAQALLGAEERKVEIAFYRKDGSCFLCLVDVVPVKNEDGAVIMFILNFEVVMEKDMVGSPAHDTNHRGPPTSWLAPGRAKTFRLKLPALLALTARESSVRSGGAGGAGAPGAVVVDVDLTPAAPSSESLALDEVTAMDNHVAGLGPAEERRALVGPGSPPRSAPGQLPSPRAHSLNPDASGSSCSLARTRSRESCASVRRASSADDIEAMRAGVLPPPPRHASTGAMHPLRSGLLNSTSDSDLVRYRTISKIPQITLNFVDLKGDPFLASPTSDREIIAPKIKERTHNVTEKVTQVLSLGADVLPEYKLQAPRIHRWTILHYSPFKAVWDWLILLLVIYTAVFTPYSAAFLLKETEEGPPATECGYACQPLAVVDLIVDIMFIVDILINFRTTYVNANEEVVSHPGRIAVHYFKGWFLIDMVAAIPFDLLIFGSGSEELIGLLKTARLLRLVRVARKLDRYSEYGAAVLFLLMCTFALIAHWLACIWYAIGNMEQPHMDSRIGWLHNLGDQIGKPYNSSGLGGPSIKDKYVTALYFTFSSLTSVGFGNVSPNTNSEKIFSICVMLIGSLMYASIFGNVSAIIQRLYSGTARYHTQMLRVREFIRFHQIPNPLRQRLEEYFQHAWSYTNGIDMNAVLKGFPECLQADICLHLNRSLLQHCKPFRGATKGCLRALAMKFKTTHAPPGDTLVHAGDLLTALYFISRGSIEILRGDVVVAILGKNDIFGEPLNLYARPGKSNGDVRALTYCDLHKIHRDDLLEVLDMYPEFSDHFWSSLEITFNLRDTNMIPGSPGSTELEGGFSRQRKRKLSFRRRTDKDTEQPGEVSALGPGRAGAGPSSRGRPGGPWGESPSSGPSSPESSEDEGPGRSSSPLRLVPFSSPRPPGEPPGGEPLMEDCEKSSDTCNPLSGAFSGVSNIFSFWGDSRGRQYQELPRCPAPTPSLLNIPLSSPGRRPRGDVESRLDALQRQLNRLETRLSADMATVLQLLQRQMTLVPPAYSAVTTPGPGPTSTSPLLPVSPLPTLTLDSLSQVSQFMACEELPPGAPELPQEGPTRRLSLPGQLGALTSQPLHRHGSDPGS
Sequence of Protein Wnt-3a (P27467 whole entry): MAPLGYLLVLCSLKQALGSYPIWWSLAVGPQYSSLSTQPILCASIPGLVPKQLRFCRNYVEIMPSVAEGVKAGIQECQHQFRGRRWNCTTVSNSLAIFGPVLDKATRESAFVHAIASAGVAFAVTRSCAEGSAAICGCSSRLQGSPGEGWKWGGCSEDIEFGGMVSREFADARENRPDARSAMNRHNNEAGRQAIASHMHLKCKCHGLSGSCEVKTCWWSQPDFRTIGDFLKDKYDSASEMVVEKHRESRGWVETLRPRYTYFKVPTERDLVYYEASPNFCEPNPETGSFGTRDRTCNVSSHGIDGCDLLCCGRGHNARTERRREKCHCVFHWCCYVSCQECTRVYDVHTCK
Sequence of 72 kDa type IV collagenase (P08253 whole entry): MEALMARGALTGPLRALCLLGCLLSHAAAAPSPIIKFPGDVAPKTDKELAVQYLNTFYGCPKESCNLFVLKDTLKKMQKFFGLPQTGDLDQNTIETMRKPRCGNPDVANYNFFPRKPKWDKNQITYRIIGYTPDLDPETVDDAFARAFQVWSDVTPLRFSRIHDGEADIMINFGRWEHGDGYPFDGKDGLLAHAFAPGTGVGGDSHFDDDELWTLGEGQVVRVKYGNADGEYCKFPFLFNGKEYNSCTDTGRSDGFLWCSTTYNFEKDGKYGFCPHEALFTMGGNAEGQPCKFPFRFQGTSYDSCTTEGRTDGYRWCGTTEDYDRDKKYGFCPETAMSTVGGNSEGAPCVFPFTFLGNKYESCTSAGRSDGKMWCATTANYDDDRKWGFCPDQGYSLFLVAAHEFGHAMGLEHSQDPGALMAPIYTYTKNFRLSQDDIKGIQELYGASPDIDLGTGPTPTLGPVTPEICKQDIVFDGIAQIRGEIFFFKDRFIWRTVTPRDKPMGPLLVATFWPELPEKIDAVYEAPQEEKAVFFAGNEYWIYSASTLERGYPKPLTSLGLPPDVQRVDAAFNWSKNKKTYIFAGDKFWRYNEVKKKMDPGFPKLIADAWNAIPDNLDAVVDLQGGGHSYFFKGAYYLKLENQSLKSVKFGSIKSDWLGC
Sequence of 26S proteasome non-ATPase regulatory subunit 14 (O00487 whole entry): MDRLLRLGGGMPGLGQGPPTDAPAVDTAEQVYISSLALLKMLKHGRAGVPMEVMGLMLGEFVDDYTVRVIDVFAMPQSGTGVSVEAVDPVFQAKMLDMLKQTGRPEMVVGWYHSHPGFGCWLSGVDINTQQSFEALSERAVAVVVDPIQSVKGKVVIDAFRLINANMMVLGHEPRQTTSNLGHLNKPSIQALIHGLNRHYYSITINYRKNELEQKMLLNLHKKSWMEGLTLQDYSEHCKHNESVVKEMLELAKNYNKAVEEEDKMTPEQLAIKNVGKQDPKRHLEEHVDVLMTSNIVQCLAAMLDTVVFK

CC(C)(CO)Cc1cc(C(C)(C)C)c(O)c(C(C)(C)C)c1
AC50 [1]: 35.5 µM (inconclusive)

CN1C(=O)/C(=C/C=C2/CCCN2C)N(C)C1=S
IC50 [2]: > 100 µM (inactive)
IC50 [3]: 24.2 µM (active)
IC50 [4]: 29 µM (active)
IC50 [5]: 8.15 µM (active)

O=C(Nc1nc2ccsc2c(=O)s1)c1ccc(F)cc1Cl
IC50 [6]: > 67.5 µM (inactive)
IC50 [7]: > 67.5 µM (inactive)
IC50 [8]: 31.7 µM (active)

O=C(O)CC(NNC(=O)c1ccccc1)C(=O)Nc1ccc([N+](=O)[O-])cc1 (stereo unspecified)
IC50 [6]: > 67.5 µM (inactive)
IC50 [7]: > 67.5 µM (inactive)

CC1(C)CC(NCCC(c2ccccc2)c2ccco2)CCO1 (stereo unspecified)
EC50 [9]: > 53 µM (inactive)
IC50 [10]: > 47.1 µM (inactive)
IC50 [6]: > 67.5 µM (inactive)
IC50 [7]: > 67.5 µM (inactive)

FC(F)Oc1ccc(-[n+]2cc(-c3ccccc3)n3c2CCCCC3)cc1
IC50 [11]: 12.5 µM (active)

CC(Oc1ccc2ccccc2c1)C(=O)NNC(=S)NC(=O)c1ccco1 (stereo unspecified)
CC50 [12]: 27.3 µM (active)
CC50 [13]: > 25 µM (active)
IC50 [14]: 6.03 µM (active)
IC50 [15]: 24.6 µM (active)
EC50 [16]: 0.432 µM (active)
CC50 [17]: 39.5 µM (active)
CC50 [18]: > 20 µM (active)
EC50 [19]: 0.074 µM (active)

COCCNc1nc2c(c(=O)n(C)c(=O)n2C)n1Cc1cccc(C)c1
IC50 [11]: 1.95 µM (active)

Cc1ccc(C)c(N2CCN(c3ncnc4c3cnn4-c3ccccc3)CC2)c1
CC50 [13]: > 25 µM (active)
IC50 [15]: > 25 µM (active)

O=C(COc1ccc(Cl)cc1Cl)OCC(=O)N1CCCc2ccccc21
IC50 [6]: > 67.5 µM (inactive)
IC50 [7]: > 67.5 µM (inactive)

COc1ccc(Cn2c(N)c(S(=O)(=O)c3cccs3)c3nc4ccccc4nc32)cc1
AC50 [20]: 4.33 µM (active)
AC50 [21]: 2.79 µM (active)

CCNc1nc(CN2CCCCC2)nc2scc(-c3ccccc3)c12
IC50 [11]: 5.03 µM (active)
CC50 [22]: > 40 µM (active)

COc1ccccc1NC(=O)CSc1ccc(-c2ccc(-n3cccn3)cc2)nn1
IC50 [2]: > 100 µM (inactive)
IC50 [4]: > 100 µM (inactive)
IC50 [5]: 15.7 µM (active)

O=[N+]([O-])c1ccc(N/N=C\c2cccn2-c2ccccc2)nc1
IC50 [2]: > 100 µM (inactive)
IC50 [4]: 29.5 µM (active)
IC50 [5]: 23.5 µM (active)

C/C(=N\Nc1ccc([N+](=O)[O-])cc1[N+](=O)[O-])c1cccnc1
IC50 [23]: 155 µM (inactive)

COC(=O)[C@H](NC(=O)c1cc(-c2ccccc2)nc2ccccc12)c1ccccc1
AC50 [1]: 0.794 µM (inconclusive)

COc1cc2c(cc1OC)-c1c/c(=N\c3c(C)cc(C)cc3C)n(C)c(=O)n1CC2 [TREQUINSIN HYDROCHLORIDE]
AC50 [1]: 35.5 µM (inconclusive)
